Source: ChEMBL document CHEMBL1152225, “Optimization of a series of potent and selective ketone histone deacetylase inhibitors” (Bioorg Med Chem Lett, 2008)
Values belong to the compound of their own block, whether it stands above or below them. The source made the active and inactive calls. The calls are words filed in the database; no cut-off is given here.

Columns and labels:
[1] = Metabolic stability in rat liver microsomes assessed as intrinsic clearance; format: ADME, Microsome
Histone deacetylase 8 = target: T1, Histone deacetylase 8 (Homo sapiens, UniProt Q9BY41); assay: Inhibition of HDAC8
T1 sequence (Q9BY41 whole entry): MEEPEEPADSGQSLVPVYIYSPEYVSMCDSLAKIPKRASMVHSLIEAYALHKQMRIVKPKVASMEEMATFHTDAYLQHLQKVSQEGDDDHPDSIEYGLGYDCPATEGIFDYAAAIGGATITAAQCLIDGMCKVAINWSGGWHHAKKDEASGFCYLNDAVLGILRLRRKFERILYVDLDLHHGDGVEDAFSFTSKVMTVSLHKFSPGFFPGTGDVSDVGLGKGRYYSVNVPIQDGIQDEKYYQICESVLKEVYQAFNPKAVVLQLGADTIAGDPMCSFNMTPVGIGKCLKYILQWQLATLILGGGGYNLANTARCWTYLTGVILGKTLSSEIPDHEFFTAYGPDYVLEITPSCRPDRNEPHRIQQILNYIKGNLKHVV

Histone deacetylase 4 = Histone deacetylase 4 (Homo sapiens, UniProt P56524); assay: Inhibition of HDAC4
Histone deacetylase 4, sequence (P56524 whole entry): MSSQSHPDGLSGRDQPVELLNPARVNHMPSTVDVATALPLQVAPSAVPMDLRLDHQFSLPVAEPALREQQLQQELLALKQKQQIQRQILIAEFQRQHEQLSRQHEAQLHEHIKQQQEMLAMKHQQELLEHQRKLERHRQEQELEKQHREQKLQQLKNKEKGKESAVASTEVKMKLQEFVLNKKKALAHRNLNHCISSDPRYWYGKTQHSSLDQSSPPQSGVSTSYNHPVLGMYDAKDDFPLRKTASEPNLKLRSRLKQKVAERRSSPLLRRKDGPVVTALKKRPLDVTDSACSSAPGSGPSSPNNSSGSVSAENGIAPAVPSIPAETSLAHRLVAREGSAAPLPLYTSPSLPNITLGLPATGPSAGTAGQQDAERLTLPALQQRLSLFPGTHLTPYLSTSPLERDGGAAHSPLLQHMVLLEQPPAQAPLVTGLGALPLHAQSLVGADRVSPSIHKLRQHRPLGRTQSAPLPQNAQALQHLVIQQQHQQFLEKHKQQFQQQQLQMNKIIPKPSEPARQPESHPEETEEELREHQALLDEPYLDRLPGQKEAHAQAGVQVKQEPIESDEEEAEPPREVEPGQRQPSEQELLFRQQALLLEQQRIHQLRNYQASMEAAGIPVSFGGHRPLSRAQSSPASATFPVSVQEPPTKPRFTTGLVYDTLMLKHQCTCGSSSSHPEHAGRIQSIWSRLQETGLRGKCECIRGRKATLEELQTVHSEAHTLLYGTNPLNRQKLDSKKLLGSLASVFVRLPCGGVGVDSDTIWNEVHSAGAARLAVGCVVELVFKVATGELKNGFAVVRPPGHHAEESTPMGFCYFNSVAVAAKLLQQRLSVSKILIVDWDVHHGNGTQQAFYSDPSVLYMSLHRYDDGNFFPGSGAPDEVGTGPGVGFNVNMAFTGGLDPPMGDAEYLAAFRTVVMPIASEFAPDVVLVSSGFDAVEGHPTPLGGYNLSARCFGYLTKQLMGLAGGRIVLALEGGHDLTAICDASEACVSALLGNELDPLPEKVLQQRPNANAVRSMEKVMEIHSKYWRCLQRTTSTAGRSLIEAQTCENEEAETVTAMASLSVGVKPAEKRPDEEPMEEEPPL

HCT-116 [2] = assay: In vivo antitumor activity against human HCT116 cells; format: functional, organism-based
Histone deacetylase 5 = Histone deacetylase 5 (Homo sapiens, UniProt Q9UQL6); assay: Inhibition of HDAC5
Histone deacetylase 5, sequence (Q9UQL6 whole entry): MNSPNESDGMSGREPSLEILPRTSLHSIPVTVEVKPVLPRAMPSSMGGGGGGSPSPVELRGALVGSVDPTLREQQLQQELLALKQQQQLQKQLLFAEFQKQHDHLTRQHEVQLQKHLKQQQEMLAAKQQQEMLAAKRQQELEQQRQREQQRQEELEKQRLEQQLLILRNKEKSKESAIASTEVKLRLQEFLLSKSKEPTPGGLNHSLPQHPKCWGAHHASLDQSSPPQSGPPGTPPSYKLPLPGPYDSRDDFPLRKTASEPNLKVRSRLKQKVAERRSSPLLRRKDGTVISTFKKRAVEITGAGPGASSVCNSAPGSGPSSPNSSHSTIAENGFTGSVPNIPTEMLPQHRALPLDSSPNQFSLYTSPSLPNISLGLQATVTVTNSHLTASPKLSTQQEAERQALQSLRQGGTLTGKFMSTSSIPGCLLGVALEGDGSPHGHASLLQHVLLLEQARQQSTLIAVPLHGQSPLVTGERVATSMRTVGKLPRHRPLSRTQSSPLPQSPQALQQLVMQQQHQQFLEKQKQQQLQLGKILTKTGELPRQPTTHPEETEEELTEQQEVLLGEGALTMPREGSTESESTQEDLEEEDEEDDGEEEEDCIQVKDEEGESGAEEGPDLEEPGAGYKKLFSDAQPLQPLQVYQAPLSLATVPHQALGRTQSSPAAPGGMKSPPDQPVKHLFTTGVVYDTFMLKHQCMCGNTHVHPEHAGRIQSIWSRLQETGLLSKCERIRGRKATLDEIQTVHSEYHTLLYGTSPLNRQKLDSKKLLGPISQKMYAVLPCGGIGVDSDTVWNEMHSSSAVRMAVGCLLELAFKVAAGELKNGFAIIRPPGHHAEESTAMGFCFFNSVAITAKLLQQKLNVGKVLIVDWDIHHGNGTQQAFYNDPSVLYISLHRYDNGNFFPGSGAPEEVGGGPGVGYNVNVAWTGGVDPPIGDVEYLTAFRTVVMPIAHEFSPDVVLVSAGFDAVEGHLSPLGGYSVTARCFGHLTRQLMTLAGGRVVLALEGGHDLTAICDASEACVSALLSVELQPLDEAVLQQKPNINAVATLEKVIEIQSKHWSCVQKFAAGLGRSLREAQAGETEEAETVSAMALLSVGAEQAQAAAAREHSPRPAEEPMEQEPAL

Histone deacetylase 7 = target: T2, Histone deacetylase 7 (Homo sapiens, UniProt Q8WUI4); assay: Inhibition of HDAC7
T2 sequence (Q8WUI4 whole entry): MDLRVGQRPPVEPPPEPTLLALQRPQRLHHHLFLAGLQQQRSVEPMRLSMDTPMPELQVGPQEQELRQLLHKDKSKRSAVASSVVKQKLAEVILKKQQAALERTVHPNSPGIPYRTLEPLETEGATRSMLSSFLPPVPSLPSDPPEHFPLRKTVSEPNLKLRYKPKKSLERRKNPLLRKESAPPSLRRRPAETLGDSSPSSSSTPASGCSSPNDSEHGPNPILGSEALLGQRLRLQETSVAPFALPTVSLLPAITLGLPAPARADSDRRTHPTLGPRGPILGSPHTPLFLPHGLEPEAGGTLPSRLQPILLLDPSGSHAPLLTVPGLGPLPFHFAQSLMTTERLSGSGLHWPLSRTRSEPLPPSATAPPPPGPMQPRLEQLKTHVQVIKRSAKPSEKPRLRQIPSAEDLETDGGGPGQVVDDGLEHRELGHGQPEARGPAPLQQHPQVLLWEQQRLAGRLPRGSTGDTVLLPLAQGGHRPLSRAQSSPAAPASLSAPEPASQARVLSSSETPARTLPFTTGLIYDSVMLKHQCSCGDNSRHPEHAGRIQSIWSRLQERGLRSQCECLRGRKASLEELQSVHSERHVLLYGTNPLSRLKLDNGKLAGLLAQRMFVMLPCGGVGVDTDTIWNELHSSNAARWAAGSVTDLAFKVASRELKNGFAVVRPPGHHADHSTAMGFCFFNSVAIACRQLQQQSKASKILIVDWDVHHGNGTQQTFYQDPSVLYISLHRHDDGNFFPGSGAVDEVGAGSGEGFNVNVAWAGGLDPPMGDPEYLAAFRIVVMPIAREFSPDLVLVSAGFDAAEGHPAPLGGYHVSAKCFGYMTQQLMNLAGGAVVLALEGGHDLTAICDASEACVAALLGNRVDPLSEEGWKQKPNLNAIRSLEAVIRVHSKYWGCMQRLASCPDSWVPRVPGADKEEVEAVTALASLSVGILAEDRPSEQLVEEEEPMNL

HCT-116 [3] = assay: Antiproliferative activity against human HCT116 cells after 72 hrs by celltiter-blue viability assay; format: functional, cell-based; conditions: HCT-116, 72 h
[4] = Clearance in iv dosed rat; format: ADME, organism-based; conditions: in vivo
[5] = Oral bioavailability dog; format: ADME, organism-based, Canis lupus familiaris; conditions: in vivo
Histone deacetylase 3 = Histone deacetylase 3 (Homo sapiens, UniProt O15379)
Histone deacetylase 3, sequence (O15379 whole entry): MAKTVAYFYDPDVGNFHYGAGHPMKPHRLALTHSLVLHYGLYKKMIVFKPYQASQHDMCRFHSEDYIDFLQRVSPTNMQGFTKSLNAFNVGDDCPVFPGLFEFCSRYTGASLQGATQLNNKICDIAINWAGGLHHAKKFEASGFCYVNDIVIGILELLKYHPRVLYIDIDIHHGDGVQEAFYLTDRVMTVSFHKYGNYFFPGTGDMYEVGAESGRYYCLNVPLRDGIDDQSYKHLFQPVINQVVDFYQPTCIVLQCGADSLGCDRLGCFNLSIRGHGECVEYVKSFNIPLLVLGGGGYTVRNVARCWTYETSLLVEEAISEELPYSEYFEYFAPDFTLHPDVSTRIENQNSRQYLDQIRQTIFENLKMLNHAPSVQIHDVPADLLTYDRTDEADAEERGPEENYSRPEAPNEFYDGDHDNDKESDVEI

Histone deacetylase 1 = Histone deacetylase 1 (Homo sapiens, UniProt Q13547)
Histone deacetylase 1, sequence (Q13547 whole entry): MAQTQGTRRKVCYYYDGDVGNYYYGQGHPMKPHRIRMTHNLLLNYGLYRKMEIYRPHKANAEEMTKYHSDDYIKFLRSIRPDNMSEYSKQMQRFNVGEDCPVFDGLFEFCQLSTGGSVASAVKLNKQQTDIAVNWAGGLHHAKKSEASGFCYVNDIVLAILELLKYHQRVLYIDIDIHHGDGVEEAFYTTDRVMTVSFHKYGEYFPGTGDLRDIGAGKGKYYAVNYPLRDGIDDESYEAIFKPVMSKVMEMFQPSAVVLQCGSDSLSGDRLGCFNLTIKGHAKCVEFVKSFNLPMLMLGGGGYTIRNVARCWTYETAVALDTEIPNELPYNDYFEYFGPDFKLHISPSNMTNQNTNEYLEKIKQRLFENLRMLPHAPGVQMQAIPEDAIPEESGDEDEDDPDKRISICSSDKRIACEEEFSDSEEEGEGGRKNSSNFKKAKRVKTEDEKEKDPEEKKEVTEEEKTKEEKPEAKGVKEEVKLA
Description: Inhibition of human recombinant C-terminally flag tagged HDAC1

[6] = Volume of distribution at steady state in iv dosed dog; format: ADME, organism-based, Canis lupus familiaris; conditions: in vivo, read-out: Vdss
HeLa = assay: Antiproliferative activity against human HeLa cells after 72 hrs by celltiter-blue viability assay; format: functional, cell-based
[7] = Half life in iv dosed rat; format: ADME, organism-based; conditions: in vivo
Histone deacetylase 2 = Histone deacetylase 2 (Homo sapiens, UniProt Q92769)
Histone deacetylase 2, sequence (Q92769 whole entry): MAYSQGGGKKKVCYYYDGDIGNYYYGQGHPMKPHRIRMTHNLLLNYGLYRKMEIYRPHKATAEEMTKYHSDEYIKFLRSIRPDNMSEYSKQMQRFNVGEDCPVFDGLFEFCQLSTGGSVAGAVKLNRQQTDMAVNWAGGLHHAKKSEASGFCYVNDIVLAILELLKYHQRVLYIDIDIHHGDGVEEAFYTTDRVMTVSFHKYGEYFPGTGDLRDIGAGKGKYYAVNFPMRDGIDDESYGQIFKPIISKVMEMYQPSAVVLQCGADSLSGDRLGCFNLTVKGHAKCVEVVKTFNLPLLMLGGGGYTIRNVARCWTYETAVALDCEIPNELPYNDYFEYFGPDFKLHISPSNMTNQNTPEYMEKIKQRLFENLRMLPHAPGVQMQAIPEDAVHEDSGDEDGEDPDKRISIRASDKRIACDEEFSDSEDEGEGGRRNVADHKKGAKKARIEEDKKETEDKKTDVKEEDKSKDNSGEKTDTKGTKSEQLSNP

Liver microsomes = assay: Metabolic stability in human liver microsomes assessed as intrinsic clearance; format: ADME, Microsome
[8] = Metabolic stability in dog liver microsomes assessed as intrinsic clearance; format: ADME, Canis lupus familiaris, Microsome
A549 = assay: Antiproliferative activity against human A549 cells after 72 hrs by celltiter-blue viability assay; format: functional, cell-based; conditions: A549, 72 h
[9] = Clearance in iv dosed dog; format: ADME, organism-based, Canis lupus familiaris; conditions: in vivo
[10] = target: T3, Protein deacetylase HDAC6 (Homo sapiens, UniProt Q9UBN7)
T3 sequence (Q9UBN7 whole entry): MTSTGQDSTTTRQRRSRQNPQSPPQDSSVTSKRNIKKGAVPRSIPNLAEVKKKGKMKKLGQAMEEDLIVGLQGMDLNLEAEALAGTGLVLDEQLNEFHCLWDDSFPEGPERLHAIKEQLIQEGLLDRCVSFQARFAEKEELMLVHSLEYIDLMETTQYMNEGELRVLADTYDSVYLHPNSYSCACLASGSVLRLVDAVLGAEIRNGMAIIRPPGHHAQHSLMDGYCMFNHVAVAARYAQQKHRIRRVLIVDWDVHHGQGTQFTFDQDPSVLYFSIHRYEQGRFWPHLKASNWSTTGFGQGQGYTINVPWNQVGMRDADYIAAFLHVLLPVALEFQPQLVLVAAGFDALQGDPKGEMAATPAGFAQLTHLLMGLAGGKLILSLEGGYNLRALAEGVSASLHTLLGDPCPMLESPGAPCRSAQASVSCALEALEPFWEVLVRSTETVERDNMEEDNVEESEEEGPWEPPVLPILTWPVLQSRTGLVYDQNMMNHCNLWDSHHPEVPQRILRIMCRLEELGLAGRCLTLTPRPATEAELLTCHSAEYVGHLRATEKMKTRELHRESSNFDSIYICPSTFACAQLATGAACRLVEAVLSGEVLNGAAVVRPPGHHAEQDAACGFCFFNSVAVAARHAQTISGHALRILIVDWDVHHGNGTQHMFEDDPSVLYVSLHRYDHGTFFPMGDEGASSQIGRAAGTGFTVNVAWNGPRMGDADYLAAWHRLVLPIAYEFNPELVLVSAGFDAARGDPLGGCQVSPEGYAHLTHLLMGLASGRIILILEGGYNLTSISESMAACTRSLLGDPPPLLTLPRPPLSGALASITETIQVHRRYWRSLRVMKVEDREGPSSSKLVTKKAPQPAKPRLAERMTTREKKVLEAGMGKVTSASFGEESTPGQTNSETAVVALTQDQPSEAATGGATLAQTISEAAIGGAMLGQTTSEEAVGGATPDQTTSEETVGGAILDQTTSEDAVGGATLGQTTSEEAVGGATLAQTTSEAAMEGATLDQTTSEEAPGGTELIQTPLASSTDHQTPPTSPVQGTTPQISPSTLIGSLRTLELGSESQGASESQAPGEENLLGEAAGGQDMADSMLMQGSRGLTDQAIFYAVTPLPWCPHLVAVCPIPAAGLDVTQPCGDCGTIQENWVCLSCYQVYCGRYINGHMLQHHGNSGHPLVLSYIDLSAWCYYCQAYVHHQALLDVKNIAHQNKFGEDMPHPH

[11] = Oral bioavailability in rat; format: ADME, organism-based; conditions: in vivo
[12] = Volume of distribution at steady state in iv dosed rat; format: ADME, organism-based; conditions: in vivo, read-out: Vdss
[13] = Protein binding in dog plasma; format: ADME, cell-free, Canis lupus familiaris; conditions: read-out: PPB (converted)
[14] = Protein binding in human plasma; format: ADME, cell-free; conditions: read-out: PPB (converted)
[15] = Half life in iv dosed dog; format: ADME, organism-based, Canis lupus familiaris; conditions: in vivo
[16] = Protein binding in rat plasma; format: ADME, cell-free; conditions: read-out: PPB (converted)

microsomal CLint [1]: > 300 µL/min/mg | IC50 (Histone deacetylase 8): > 1 µM | IC50 (Histone deacetylase 4): > 1 µM | IC50 (Histone deacetylase 5): > 1 µM | IC50 (Histone deacetylase 7): > 1 µM
Structure (SMILES): COc1ccc2[nH]c(C)c(CC(=O)N[C@@H](CCCCCC(C)=O)c3ncc(-c4ccccc4)[nH]3)c2c1
Activity (HCT-116 [2]): Active

Structure (SMILES): CC(=O)CCCCC[C@H](NC(=O)C1CCN(C)CC1)c1ncc(-c2ccc3ccccc3c2)[nH]1
IC50 (HCT-116 [3]): 0.59 µM | clearance [4]: 133 mL/min/kg | microsomal CLint [1]: 194 µL/min/mg | bioavailability [5]: 28% | IC50 (Histone deacetylase 8): > 1 µM | IC50 (Histone deacetylase 4): > 1 µM | IC50 (Histone deacetylase 3): 0.017 µM | IC50 (Histone deacetylase 1): 0.011 µM | Vd [6]: 5.2 L/kg | IC50 (HeLa): 0.3 µM | half-life [7]: 2.4 h | IC50 (Histone deacetylase 2): 0.029 µM | CL (Liver microsomes): 12 µL/min/mg | CL [8]: 10 µL/min/mg | IC50 (A549): 0.72 µM | clearance [9]: 7 mL/min/kg | IC50 (Histone deacetylase 5): > 1 µM | IC50 [10]: 0.01 µM | bioavailability [11]: 0% | IC50 (Histone deacetylase 7): > 1 µM | Vd [12]: 6.9 L/kg | fraction unbound [13]: 0.04 | fraction unbound [14]: 0.04 | half-life [15]: 11.8 h | fraction unbound [16]: 0.11
